Read-outs that look alike come from different tables or passages of the source. Marks after values point to notes of the source that are not given here.
Legend:
Puccinia recondita = experiment: Fungicidal test, Puccinia recondita (PUCCRT) on wheat, PRCO; assay type: in vivo
Pyricularia oryzae = assay type: in vivo; conditions: METHOD 2 (unbanded)
Uncinula necator = experiment: Fungicidal test, Uncinula necator (UNCINE) on vines, PRCO; assay type: in vivo; conditions: METHOD 2 (unbanded)
Meloidogyne incognita = experiment: Nematode test, J2 infective juveniles of Meloidogyne incognita, mortality; conditions: 12.5 ppm; J2 infective juveniles suspended in solution; mortality after three days
Musca domestica = conditions: 500 ppm by weight; knockdown assessed 15 minutes after treatment
[1] = test system: Erysiphe graminis f.sp. tritici; experiment: Fungicidal test, Erysiphe graminis f.sp. tritici (ERYSGT) on wheat, PRCO; assay type: in vivo; conditions: 1 d Prot/Foir; METHOD 2 (unbanded)
Plasmopara viticola = experiment: Fungicidal test, Plasmopara viticola (PLASVI) on vines, PRCO; assay type: in vivo; conditions: METHOD 2 (unbanded)
Venturia inaequalis = experiment: Fungicidal test, Venturia inaequalis (VENTIN) on apples, PRCO; assay type: in vivo; conditions: METHOD 2 (unbanded)
[2] = test system: Phytophthora infestans lycopersici; assay type: in vivo
Septoria nodorum = experiment: Fungicidal test, Septoria nodorum (LEPTNO) on wheat, PRCO; assay type: in vivo; conditions: METHOD 2 (unbanded)
Rhizoctonia solani = experiment: Fungicidal test, Rhizoctonia solani (RHIZSO) on rice, PRCO; assay type: in vivo; conditions: METHOD 2 (unbanded)

Structure (SMILES)	PUCCRT 1 d Prot/Foir PRCO (Puccinia recondita; METHOD 2 (unbanded))	PYRIOR 1 d Prot/Foir PRCO (Pyricularia oryzae)	UNCINE 1 d Prot/Foir PRCO (Uncinula necator)	MELGIN = Meloidogyne incognita, grading of mortality (score) (Meloidogyne incognita)	MUSCDO AC = Musca domestica (knockdown), score (Musca domestica)	ERYSGT 1 d Prot/Foir PRCO [1]	PLASVI 1 d Prot/Foir PRCO (Plasmopara viticola)	VENTIN 1 d Prot/Foir PRCO (Venturia inaequalis)	PHYTIN 1 d Prot/Foir PRCO ([2]; METHOD 2 (unbanded))	LEPTNO 1 d Prot/Foir PRCO (Septoria nodorum)	RHIZSO 1 d Prot/Foir PRCO (Rhizoctonia solani)	PUCCRT 1 d Prot/Foir PRCO (Puccinia recondita; METHOD 1 (values marked *))	PHYTIN 1 d Prot/Foir PRCO ([2]; METHOD 1 (values marked *))
Cc1nsc(NC(=O)Cc2ccc3ocnc3c2)c1Cl [1(A3)]	59	91	43	5 (5 indicates 40-79% mortality)	0 (0 indicates less than 40% mortality)	88	6	25	100				
Cc1nc2cc(CC(=O)Nc3snc(C)c3Cl)ccc2s1 [2(A13)]	99	47	72	5 (5 indicates 40-79% mortality)	0 (0 indicates less than 40% mortality)	31			100	62	43		
CCc1nc2cc(CC(=O)Nc3snc(C)c3Cl)ccc2o1 [3(A3)]	98		27	0 (0 indicates less than 40% mortality)	9 (9 indicates 80-100% mortality)	4	14	67		33	0		
CCCCc1nc2cc(CC(=O)Nc3snc(C)c3Cl)ccc2o1 [5(A3)]	88	31	72	0 (0 indicates less than 40% mortality)	0 (0 indicates less than 40% mortality)	40	39	−10	100	30			
Cc1nsc(NC(=O)Cc2ccc3oc(C(C)C)nc3c2)c1Cl [8(A3)]	90		40	0 (0 indicates less than 40% mortality)	9 (9 indicates 80-100% mortality)	20	6	26		0	0		
Cc1nsc(NC(=O)Cc2ccc3nc(CC(C)(C)C)oc3c2)c1Cl [15(A23)]	98	80	100	0 (0 indicates less than 40% mortality)	0 (0 indicates less than 40% mortality)	62		100	100	83	0		
Cc1nsc(NC(=S)Cc2ccc3oc(CC(C)(C)C)nc3c2)c1Cl [15(V3)]	100	100	100	0 (0 indicates less than 40% mortality)	0 (0 indicates less than 40% mortality)	87		10	100	−2	0		
Cc1nsc(NC(=O)Cc2ccc3oc(C4CCCC4)nc3c2)c1Cl [28(A3)]	86	81	9	0 (0 indicates less than 40% mortality)	5 (5 indicates 40-79% mortality)	46	0	53	100	20			
Cc1nsc(NC(=O)Cc2ccc3oc(CF)nc3c2)c1Cl [73(A3)]	100	100	93	0 (0 indicates less than 40% mortality)	0 (0 indicates less than 40% mortality)	93			100	57	0		
Cc1nsc(NC(=O)Cc2ccc3oc(C(C)(C)CCl)nc3c2)c1Cl [98(A3)]	98	81	100	0 (0 indicates less than 40% mortality)	5 (5 indicates 40-79% mortality)	98	99	96	100	30			
Cc1nsc(NC(=O)Cc2ccc3oc(COc4ccccc4)nc3c2)c1Cl [140(A3)]	96		99	0 (0 indicates less than 40% mortality)	0 (0 indicates less than 40% mortality)	44	63	70		13	0		
CSCCc1nc2cc(CC(=O)Nc3snc(C)c3Cl)ccc2o1 [172(A3)]	96	19	36	5 (5 indicates 40-79% mortality)	5 (5 indicates 40-79% mortality)	40	44	69	100	10			
Cc1nsc(NC(=O)Cc2ccc3oc(NC(C)(C)C)nc3c2)c1Cl [183(A3)]	99	99	98	0 (0 indicates less than 40% mortality)	0 (0 indicates less than 40% mortality)	99		98	100	19			
Cc1nsc(NC(=O)Cc2ccc3oc(N4CCOCC4)nc3c2)c1Cl [191(A3)]	99	92	100	9 (9 indicates 80-100% mortality)	5 (5 indicates 40-79% mortality)	94		10	92	36			
COc1nc2cc(CC(=O)Nc3snc(C)c3Cl)ccc2o1 [203(A3)]	100	96	69	0 (0 indicates less than 40% mortality)	9 (9 indicates 80-100% mortality)	98		65	85	−3			
CCOc1nc2cc(CC(=O)Nc3snc(C)c3Cl)ccc2o1 [204(A3)]	99	96	81	0 (0 indicates less than 40% mortality)	9 (9 indicates 80-100% mortality)	87		22	100	67			
CSc1nc2cc(CC(=O)Nc3snc(C)c3Cl)ccc2o1 [220(A3)]			−5	0 (0 indicates less than 40% mortality)	5 (5 indicates 40-79% mortality)	12	6	11		17	0	100*	100*
COC(=O)CSc1nc2cc(CC(=O)Nc3snc(C)c3Cl)ccc2o1 [229(A3)]	6	55	−9	0 (0 indicates less than 40% mortality)	0 (0 indicates less than 40% mortality)	21		10	92	2			
Cc1nsc(NC(=O)Cc2ccc3oc(-c4sccc4Cl)nc3c2)c1Cl [331(A3)]	95	81	76		0 (0 indicates less than 40% mortality)	33	49	5		17			
